Assay results as given in patent US20230287415A1, “COMBINED THERAPY AGAINST CANCER” (FUNDACIÓ INSTITUT HOSPITAL DEL MAR D'INVESTIGACIONS …, priority 2020, published 2023).

How the values were obtained:
[1] = test system: LCoR; test: Doxorubicin treatment of breast cancer cells, LCoR mRNA by qRT-PCR; assay type: cell-based, human; conditions: 360 nM during 48 hours, MDA-MB-231 cells
Method: Low dose treatment of breast cancer cells (360 nM during 48 hours) induced an increase of 2.3 fold change mRNA expression of LCoR in MDA-MB-231 cells.
Cell lines, culture conditions and treatments. All cell lines used in the study, including mammary epithelial cell lines (human HMLE), breast cancer cell lines (human MDA-MB-231 and mouse 4TO7; PyMT8119; AT3 cell lines) and other cell lines (HEK293T, H29 and HeLa), were cultured using the standard conditions according the American Type Culture Collection (ATCC) instructions. Doxorrubicin treatment was performed at 360 nM during 48 hours in MDA-MB-231 cells.
qRT-PCR analyses. Total mRNA was isolated using the RNAeasy isolation Kit (QIAGEN). mRNA reverse transcription was done using Applied Biosystems reactants and real-time quantitative PCR performed using the Power SYBR green PCR master mix (Applied Biosystems). All analyses were performed using an ABI 7900HT PCR machine. mRNA expression was normalized by the expression of GAPDH in each sample.

[2] = test system: PyMT8119-OVA cells; test: Cytotoxic T-cell lymphocyte (CTL) co-culture assay; assay type: cell-based, mouse; conditions: OT-I CD8+ T-cells co-cultured with LCoR-OE tumor cells, in combination with anti-PD-L1
From the text: These paradoxical effects of LCoR, increased immunogenicity vs. increased PD-L1, poses LCoR expressing cells as largely responsive cells to anti-PD-L1 immune-checkpoint blockade therapy.
The transgenic OT-I mouse model strain with specific TCR for the OVA-derived peptide SIINFEKL MHC-I presented, were used to isolate splenocytes and CD8+T-cells that specifically recognize the SIINFEKL peptide (OVA 257-264). 9-week OT-I mice were sacrificed to obtain the spleen. Using mechanical dissociation of the spleen over a sterile 40 μm mesh screen. Total splenocytes were plated in six well plates and non-attached T cells were separated from adherent dendritic cells (DC) after 24 hours. CD8+T-cells were isolated by FACS.
Cytotoxic T-cell lymphocyte (CTL) co-culture assays. CD8+ T-cells were isolated from the spleen of OT-I mice and activated in culture with OVA peptide during 48 hours. Activated CD8+ T-cells were cocultured in 24-well plates with PyMT8119-OVA cells in different ratios of effector T-cells:tumor cells (E:T). After 5 days of coculture, T-cells and debris were removed, washed with media and stained with Sulforhodamine B (SRB) for measuring cytotoxicity (Vichai and Kirtikara 2006). […]

| Molecule | increase of mRNA expression of LCoR [1] [fold change] | sensitivity to immune detection and killing [2] |
| --- | --- | --- |
| COc1cccc2c1C(=O)c1c(O)c3c(c(O)c1C2=O)C[C@@](O)(C(=O)CO)C[C@@H]3O[C@H]1C[C@H](N)[C@H](O)[C@H](C)O1 [Doxorubicin] | 2.3 | – |
| Atezolizumab | – | enhanced sensitivity to immune detection and killing |
